Results on five compounds are retold here after patent US8895695B2, “Template-fixed beta-hairpin peptidomimetics with CXCR4 antagonizing activity” (priority 2003, dated 2014).

Data set [1] has as its system human red blood cells (hRBC). In words: Hemolysis. Format: cell-based. An outline of the steps:
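Percent lysis taken as OD540 of peptide-treated sample over OD540 of the water/0.1% Triton X-100 full-lysis control, with PBS giving 0%. Peptides at 100 μM exposed to PBS-washed human RBCs (20% v/v) for 1 hour at 37° C. before centrifugation and 20-fold dilution of supernatant.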

In another data set the target is CXCR4 (Homo sapiens, UniProt P61073). In words: Ca2+-assay method 2 (Flexstation, SDF-1 induced calcium mobilization). Format: cell-based. Set-up: expressed in transfected cells; host or cells: mouse pre-B cell line 300-19. The conditions noted are these: method 2 (Ex. 54-160), mouse pre-B cell line 300-19 with human CXCR4, 10 nM SDF-1; read-out: IC50 (nM) Ca^2+ assay.

A further data set in a line: in vitro. The conditions noted are these: human.

Bridge positions count the residues as written; N and C are the ends. Square brackets hold non-standard residues; d marks the D form. Peptide text beside a SMILES is read from it. 2Nal = N[C@@H](Cc1ccc2ccccc2c1)C(=O)O; Cit = NC(=O)NCCC[C@H](N)C(=O)O
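Throughout, for GI50: MTT reduction read as absorbance at 595 nm, blank-corrected and expressed as percent growth relative to the time-zero cell reading, triplicate wells per concentration.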

CXCR4, sequence (P61073 whole entry): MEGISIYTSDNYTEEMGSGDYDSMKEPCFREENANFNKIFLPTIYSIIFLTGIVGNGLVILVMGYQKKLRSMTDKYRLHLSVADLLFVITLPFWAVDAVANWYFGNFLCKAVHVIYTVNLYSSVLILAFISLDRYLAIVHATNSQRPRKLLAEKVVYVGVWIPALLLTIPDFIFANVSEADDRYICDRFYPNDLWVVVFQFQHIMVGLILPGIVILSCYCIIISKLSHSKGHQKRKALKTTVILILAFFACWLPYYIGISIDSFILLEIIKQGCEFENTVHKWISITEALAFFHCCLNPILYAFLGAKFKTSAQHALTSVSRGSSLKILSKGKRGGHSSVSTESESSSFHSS

Usually IC50 stands for the point on the concentration scale where inhibition reaches its midpoint. Broadly, the GI50 is the concentration giving 50% growth inhibition. A lower GI50 goes with more potent growth inhibition. `CC(C)C[C@@H]1NC(=O)[C@H](Cc2ccc(O)cc2)NC(=O)[C@@H]2CSSC[C@H](NC(=O)[C@H](CCCNC(N)=O)NC(=O)[C@H](CCCNC(=N)N)NC(=O)[C@H](Cc3ccc(O)cc3)NC(=O)[C@@H]3CCCN3C(=O)[C@H]3CCCN3C(=O)[C@H](CCCCN)NC1=O)C(=O)N[C@@H](CCCNC(=N)N)C(=O)NCC(=O)N1CCC[C@@H]1C(=O)N[C@@H](CCCNC(=N)N)C(=O)N[C@@H](CCCNC(=N)N)C(=O)N[C@@H](Cc1ccc3ccccc3c1)C(=O)N2` [Ex. 82] (cyclo(YR[Cit]CRG[dP]RR[2Nal]CYLK[dP]P); disulfide 4-11) gave a Hemolysis at 100 μM in data set [1] of 0%. Further, the IC50 on CXCR4 came to 4.8 nM. Moreover, in “in vitro”, growth was halved (GI50 at 48 h) at 40 µM.

The compound `CSCC[C@@H]1NC(=O)[C@H](Cc2ccc(O)cc2)NC(=O)[C@@H]2CSSC[C@H](NC(=O)[C@H](CCCNC(N)=O)NC(=O)[C@H](CCCNC(=N)N)NC(=O)[C@H](Cc3ccc(O)cc3)NC(=O)[C@@H]3CCCN3C(=O)[C@H]3CCCN3C(=O)[C@H](CCCCN)NC1=O)C(=O)N[C@@H](CCCNC(=N)N)C(=O)NCC(=O)N1CCC[C@@H]1C(=O)N[C@@H](CCCNC(=N)N)C(=O)N[C@@H](CCCNC(=N)N)C(=O)N[C@@H](Cc1ccc3ccccc3c1)C(=O)N2` [Ex. 83] (cyclo(YR[Cit]CRG[dP]RR[2Nal]CYMK[dP]P); disulfide 4-11) returned a Hemolysis at 100 μM in data set [1] of 0.1%. Further, the IC50 at CXCR4 was 3.7 nM. Further, in the data set “in vitro”, the GI50 at 48 h turned out to be 48 µM.

Take `N=C(N)NCCC[C@@H]1NC(=O)[C@@H]2CSSC[C@H](NC(=O)[C@H](Cc3ccc4ccccc4c3)NC(=O)[C@H](CCCNC(=N)N)NC(=O)[C@H](CCCNC(=N)N)NC(=O)[C@H]3CCCN3C(=O)CNC1=O)C(=O)N[C@@H](Cc1ccc(O)cc1)C(=O)N[C@@H](CCC(N)=O)C(=O)N[C@@H](CC(N)=O)C(=O)N1CCC[C@@H]1C(=O)N1CCC[C@H]1C(=O)N[C@@H](Cc1ccc(O)cc1)C(=O)N[C@@H](CCCNC(=N)N)C(=O)N[C@@H](CCCNC(N)=O)C(=O)N2` [Ex. 84] (cyclo(YR[Cit]CRG[dP]RR[2Nal]CYQN[dP]P); disulfide 4-11): the Hemolysis at 100 μM in data set [1] was 0%. For the same compound, the IC50 at CXCR4 came out at 3.9 nM. Besides, growth in “in vitro” was halved (GI50 at 48 h) at 62 µM.

As for `C[C@@H]1NC(=O)[C@H](CCC(N)=O)NC(=O)[C@H](Cc2ccc(O)cc2)NC(=O)[C@@H]2CSSC[C@H](NC(=O)[C@H](CCCNC(N)=O)NC(=O)[C@H](CCCNC(=N)N)NC(=O)[C@H](Cc3ccc(O)cc3)NC(=O)[C@@H]3CCCN3C(=O)[C@H]3CCCN3C1=O)C(=O)N[C@@H](CCCNC(=N)N)C(=O)NCC(=O)N1CCC[C@@H]1C(=O)N[C@@H](CCCNC(=N)N)C(=O)N[C@@H](CCCNC(=N)N)C(=O)N[C@@H](Cc1ccc3ccccc3c1)C(=O)N2` [Ex. 86] (cyclo(YR[Cit]CRG[dP]RR[2Nal]CYQA[dP]P); disulfide 4-11), the Hemolysis at 100 μM in data set [1] is 0%. For the same compound, the IC50 at CXCR4 is 0.69 nM. For the same compound, the GI50 at 48 h in the data set “in vitro” is 62 µM.

As to `N=C(N)NCCC[C@@H]1NC(=O)[C@@H]2CSSC[C@H](NC(=O)[C@H](Cc3ccc4ccccc4c3)NC(=O)[C@H](CCCNC(=N)N)NC(=O)[C@H](CCCNC(=N)N)NC(=O)[C@H]3CCCN3C(=O)CNC1=O)C(=O)N[C@@H](Cc1ccc(O)cc1)C(=O)N[C@@H](CCC(N)=O)C(=O)N[C@@H](CO)C(=O)N1CCC[C@@H]1C(=O)N1CCC[C@H]1C(=O)N[C@@H](Cc1ccc(O)cc1)C(=O)N[C@@H](CCCNC(=N)N)C(=O)N[C@@H](CCCNC(N)=O)C(=O)N2` [Ex. 87] (cyclo(YR[Cit]CRG[dP]RR[2Nal]CYQS[dP]P); disulfide 4-11), the Hemolysis at 100 μM in data set [1] is 0%. For the same compound, the IC50 at CXCR4 was found to be 3.5 nM. The GI50 at 48 h in the data set “in vitro” came out at 64 µM.
